Key:
[1] = tested on: DNA damage machinery in A549 cells; experiment: DNA damage assay (anti-pH2AX / anti-pATM, flow cytometry); type: cell-based, human; details: A549, IC50, 24 h, vs untreated cells
Procedure: We used flow cytometry to analyze several cellular mechanistic pathways in A549 cells after incubation with the triterpenes. In general, the cells were seeded in a 6-well plate at a density of 1 × 10^6 cells/mL and incubated for 24 h in supplemented DMEM. After 24 h, the A549 cells were treated with the triterpenes, following each manufacturer’s protocol. All of the following experiments were performed in a Muse® Cell Analyzer (EMD Millipore Corporation, Temecula, CA). The instrument was calibrated before each assay using the Muse® System Check Kit (Luminex MCH100101, Luminex Corporation). Each assay was run at least in two independent experiments. For each experiment, all samples were analyzed in triplicate in the instrument and the capillary line was washed after each sample run to avoid artifacts. In addition, to address the issue of cell doublets, we used the Muse® Cell Dispersal Reagent (Luminex Corporation) in all experiments. The concentration of the triterpenes in each assay was selected depending on the cellular concentration necessary to generate the gain signal in the instrument. This means that we attempted to select concentrations avoiding excessive cytotoxicity to accurately determine the respective signal from each assay.
Then, the A549 cells were scraped and centrifuged. The pellet was suspended in the assay buffer from the Luminex MCH200107 kit (Luminex Corporation). […]

[2] = tested on: A549 cells; experiment: Total ROS production assay (DCF); type: cell-based, human; details: A549, IC25 (CisPt 25 μM), 24 h
Procedure: The production of total ROS was determined using the 2′,7′-dichlorodihydrofluorescein diacetate (DCF) fluorescent dye. A549 cells were seeded in a concentration of 1 × 10^5 cells/mL into black 96-well plates with a clear bottom. After 24 h, the cells were incubated with the triterpenes (IC25) and controls for 24 h. Then, 50 μL of DCF (10 μM) was added to each well and they were incubated for 1 h at room temperature. Then, the fluorescence of each well was measured (Ex/Em = 485/530 nm) in the Tecan® M200 plate reader.
This experiment was performed in triplicate. All data were expressed by plotting the values as an average of three measurements for each treatment condition as the mean ± SD and analyzed with the software GraphPad Prism 9. Statistical analysis was performed using one-way analysis of variance (ANOVA) to compare the mean value of each treated type of cells versus the control (untreated cells). The statistical significance defined by the software for p values was **** < 0.0001, *** from 0.001 to 0.0001, ** from 0.001 to 0.01, * from 0.01 to 0.05, and non-significant (ns) ≥ 0.05.

SMILES	Activation of the DNA damage machinery (in words) [1]	Total ROS production (in words) [2]
C[C@H]1[C@H](C)CC[C@]2(C(=O)O)CC[C@]3(C)C(=CC[C@@H]4[C@@]5(C)CC[C@H](O)C(C)(C)[C@@H]5CC[C@]43C)[C@H]12 [UrA, ursolic acid]	caused the activation of the DNA damage machinery	–
C=C(C)[C@@H]1CC[C@]2(C(=O)O)CC[C@]3(C)[C@H](CC[C@@H]4[C@@]5(C)CC[C@H](O)C(C)(C)[C@@H]5CC[C@]43C)[C@@H]12 [BeA, betulinic acid]	–	highest increase in total ROS

Reference: PMC11206507, “Unraveling the Impact of Six Pentacyclic Triterpenes Regulating Metabolic Pathways on Lung Carcinoma Cells” (Pharmaceuticals, 2024)
